The values that follow come from patent publication US5728686A, “Alkylxanthine phosphonates and alkylxanthine phosphine oxides and their use as pharmaceuticals” (Hoechst Aktiengesellschaft, priority 1996, dated 1998).

Type in all cases: cell-based
Assay [1] has as its system isolated guinea pig lung strips, leukotriene D4 (LTD4). Nature of the assay: antagonist of LTD4-induced contraction of isolated guinea pig lung strips. To be noted: Cavia porcellus, read-out: Anticontractile action (lung), LTD4: concentration range corresponding to the IC50 value. The text has this:
4. Activity as an antagonist of the contraction of isolated guinea pig lung strips
The test carried out is based on the same principle as the test indicated in the pharmacological test 3; however, lung strips are used here.
(§1) Preparation of the organ sections and experimental procedure:
The guinea pig is sacrificed under laughing gas anaesthesia. The entire pulmonary tract is exposed starting from the trachea. The lobes of the lung are cut in a circular fashion such that 3 mm wide strips are formed. The strips of the upper lobes are divided in order to obtain a total of six approximately equal size strips. The strips are suspended in the organ baths under a preload of 4 g. The nutrient solutions used are modified Krebs Henseleit solutions. When using "Platelet activating factor" (PAF) as an […], the composition of this solution corresponds to that for the agonist SP in "Test 3"; for the agonist LTD4 a Krebs Henseleit solution as in the case of the agonist KCl (Test 3) is used. 95% by volume O2, 5% by volume CO2 is used for bubbling through the bath; the bath temperature is 37° C. The experimental procedure is carried out in a therapeutically cumulative methodology, using the dosage graduations 1, 3, 6 and 10 μg/ml.
The experimental animals, organ bath, vehicles and manner of administration correspond to that stated in pharmacological test 3.
All numerical values are indicated in the unit μg/ml and relate to the concentration range of tested compound of the formula I (see example numbers in Table 1) which is necessary in order to cause a contraction which corresponds to the IC50 value.

In assay [2] the test system is isolated guinea pig trachea, agonist calcium ionophore A23187. Nature of the assay: antagonist of calcium ionophore A23187-induced contraction of isolated guinea pig trachea. Particulars: Cavia porcellus, 37° C., read-out: Anticontractile action (trachea), Ca ionophore: concentration range for dilatation corresponding to ED50 range.
Text: (§2) 3. Activity as antagonist of the contraction of isolated guinea pig trachea
(§3) The compounds of the formula I are used as antagonists of the contraction of isolated guinea pig trachea. The agonists employed were PGF2α (Upjohn, Germany), calcium ionophore A23187 (Calbiochem, Bad Soden, Germany), and substance P (American Peptide Comp., USA):
b) Calcium ionophore A23187 (Calbiochem, Bad Soden) acts by increased uptake of calcium ions, and an activation of all calcium-dependent signal cascades in the cell. Lipoxygenase inhibitors, in particular, and generally antiinflammatory substances show effects in this model.
as §1
(§4) The guinea pig is sacrificed by means of terminal laughing gas anaesthesia. The trachea is exposed along its entire length and cut into 15 individual cartilage rings. 5 rings in each case are tied together to give a chain and fixed in the organ bath under a preload of 3 g. After an equilibration time of 45 minutes, a contraction is produced using the agonist. The antagonist (test preparation) is added cumulatively on the plateau of the maximum. Evaluation is carried out in % force change relative to the contraction maximum. The experimental procedure is carried out at 37° C.; the physiological nutrient solution used is a modified Krebs-Henseleit solution through which is bubbled 95% by volume of O2, 5% by volume of CO2.
(§5) Experimental animals: albino guinea pigs (Hattersheim Animal Breeding Institute, Kastengrund, Germany), weight: 200 to 300 g, sex male or female.
(§6) Vehicle: double-distilled water, ethanol or isopropanol; administration: into the organ bath number of administration: cumulative, in SP individual doses
(§7) All numerical values are indicated in the unit μg/ml and relate to the concentration range of the tested compound of the formula I according to the invention (see example numbers in Table 1) which is necessary in order to cause a dilatation which corresponds to the ED50 range.

In assay [3] the test system is isolated guinea pig trachea, agonist PGF2α. Nature of the assay: antagonist of PGF2α-induced contraction of isolated guinea pig trachea. To be noted: Cavia porcellus, 37° C., read-out: Anticontractile action (trachea), PGF2α: concentration range for dilatation corresponding to ED50 range.
Text: as §2, §3
Inhibition of contractions which are induced by this cyclooxygenase product is only possible by competitive antagonism at the receptor or of the subsequent signal pathway.
as §1, §4, §5, §6, §7

Assay [4] relates to isolated guinea pig lung strips, Platelet activating factor (PAF). Nature of the assay: antagonist of PAF-induced contraction of isolated guinea pig lung strips. Particulars: Cavia porcellus, read-out: Anticontractile action (lung), PAF: concentration range corresponding to the IC50 value. The essentials: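 Guinea pig lung strips, 3 mm wide, held at 4 g preload in modified Krebs-Henseleit at 37° C, gassed 95% O2/5% CO2, contracted by PAF or LTD4. Compound given cumulatively at 1, 3, 6 and 10 μg/ml; value is the concentration in μg/ml giving IC50-level effect.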

Values after ≈ are worked out from the molar mass of the structure shown.

Turning to `CCOP(=O)(CCCn1cnc2c1c(=O)[nH]c(=O)n2C)OCC` [Example 2, Diethyl [4-(3-methylxanthin-7-yl)propyl]phosphonate], the IC50 in assay [1] and in assay [4] was 3 to 6 µg/mL (≈ 8.71 to 17.4 µM) each time. The EC50 in assay [2] and in assay [3] was more than 10 µg/mL each time.
